Measurements reported in patent publication US8323708B2, “Poultry meat and eggs comprising beneficial fatty acids” (Monsanto Technology LLC, priority 2009, dated 2012).

Assay: Laying hen study: long chain fatty acid composition of eggs
Assay type: in vivo, laying hens
Protocol: A study was conducted to determine whether laying hens fed a diet enriched in stearidonic acid could produce eggs with elevated levels of beneficial omega-3 fatty acids including EPA and DHA. Mature laying hens […] were randomly allotted to seven dietary treatments (16 hens/treatment) and were fed diets containing the following levels of n-3 fatty acids as described in Table 28 for four weeks. Sixteen birds were given each treatment. Four birds were randomly selected out of the 16 per treatment to obtain eggs during week 4 for fatty acid composition. […] The laying hens had ad libitum access to feed and water. The composition of the diets (Table 29) and premixes (Table 30) are provided below. To help prevent oxidation of the fatty acids, 0.05% ethoxyquin (Rendox) was added to each premix. Premixes were manufactured within 3 days of arrival of ethyl esters. To limit the oxidation associated with storage, diets were manufactured once and stored in a refrigerated cooler at 4° C. during the duration of the study. Eggs collected during […] (days 22-28) were maintained under refrigerated conditions until all eggs for that week were collected. Eggs were sorted by hen and treatment. Two eggs per hen from 4 hens per treatment were taken. The two eggs were weighed individually, cracked and the shell weighed. The difference between fresh egg and shell represented liquid egg weight and served as the basis for further calculations. The liquid fraction from each of the two eggs per hen were combined in a sample cup and homogenized. Samples were analyzed for fatty acids by gas chromatography.

SMILES | ALA (C18:3n-3) (total egg, 0.932% of diet) | DHA (C22:6n-3) (total egg, 0.932% of diet) | DPA (C22:5 n-3) (total egg, 0.932% of diet) | EPA (C20:5n-3) (total egg, 0.932% of diet) | Omega 6/Omega 3 ratio (total egg, 0.932% of diet) | Total omega 3's (total egg, 0.932% of diet) | ALA (C18:3n-3) (total egg, 1.864% of diet) | DHA (C22:6n-3) (total egg, 1.864% of diet) | DPA (C22:5 n-3) (total egg, 1.864% of diet) | EPA (C20:5n-3) (total egg, 1.864% of diet) | Omega 6/Omega 3 ratio (total egg, 1.864% of diet) | SDA (C18:4n-3) (total egg, 1.864% of diet) | Total omega 3's (total egg, 1.864% of diet) | accumulation of SDA or DPA in eggs (dietary enrichment of laying hens)
CC/C=C\C/C=C\C/C=C\CCCCCCCC(=O)OCC [ALA Ethyl Ester] | 267.5 mg/100 g | 132.5 mg/100 g | 22.5 mg/100 g | 7.5 mg/100 g | 2.9 | 430 mg/100 g | 622.5 mg/100 g | 155 mg/100 g | 32.5 mg/100 g | 12.5 mg/100 g | 1.5 | 2.5 mg/100 g | 825 mg/100 g | 
CC/C=C\C/C=C\C/C=C\CCCCCCCC(=O)OCC [ALA, alpha-Linolenic Acid - Ethyl Esters] |  |  |  |  |  |  |  |  |  |  |  |  |  | no significant accumulation
